From patent publication US12359236B2, “Production of 2-hydroxyacyl-CoAs and derivatives thereof” (Mojia Biotech Pte. Ltd., priority 2019, dated 2025)

How the values were obtained:
Assay type in all cases: biochemical
[1] = biological target: Rhodospirillales bacterium URHD0017 2-hydroxyacyl-CoA lyase (RuHACL), wild type, UniProt: A0A1H8YFL8; test: Kinetics of RuHACL-catalyzed condensation (ligation) of acetone with formyl-CoA; settings: 0.5 μM purified RuHACL, 1 mM formyl-CoA, acetone varied, 50 mM KPi pH 7.4, 2.5 mM MgCl2, 0.1 mM TPP, room temperature, 1 min; Michaelis-Menten fit
Description: 0.5 μM purified RuHACL was incubated with 1 mM formyl-CoA in a reaction mixture also containing 50 mM KPi pH 7.4, 2.5 mM MgCl2, and 0.1 mM TPP. The concentration of acetone was varied, and room temperature reactions were carried out for 1 min. 40 μL samples were quenched by addition of 10 μL 0.5 M NaOH and placed on ice. 12.5 μL of a saturated ammonium sulfate solution acidified with 1% sulfuric acid was added and the samples were analyzed by HPLC for the determination of the initial reaction rates after centrifugation at 20817×g for 15 minutes. […] The apparent kcat of RuHACL on acetone was 2.7±0.8 s^−1 while the KM was 1.57±0.68 M, corresponding to a catalytic efficiency of 1.7±0.9 s^−1 M^−1.

[2] = system: Rhodospirillales bacterium URHD0017 2-hydroxyacyl-CoA lyase (RuHACL) variant G390N (RuHACL^G390N); test: Kinetics of the C1 condensation reaction of the G390N RuHACL mutant on formyl-CoA and formaldehyde; settings: in vitro, formyl-CoA and formaldehyde as substrates
[3] = system: formaldehyde; test: Cell-free prototyping of one carbon bioconversion pathway with E. coli cell extracts; settings: for performance of enzyme variant in cell-free glycolic acid pathway: mixed extracts of HACL and ACR variants, formaldehyde as sole carbon source
Description: Cell-free reactions for pathway prototyping contained 50 mM KPi pH 7.4, 4 mM MgCl2, 0.1 mM TPP, 2.5 mM CoASH, 5 mM NAD^+, and 50 mM formaldehyde. For time course experiments, 0.1 mM coenzyme B12 was added. Individual cell extract loading was around 4.4 g/L protein (⅛ of the reaction volume), and the amount of protein added to each reaction was normalized with BL21(DE3) extract to ˜26 g/L protein (¾ of the reaction volume). Reactions were incubated at room temperature for one hour unless otherwise specified. ¼ of the reaction volume of saturated ammonium sulfate solution acidified with 1% sulfuric acid was added to terminate the reactions. Samples were centrifuged at 20817×g for 15 minutes and the supernatant analyzed by HPLC or GC-MS as described below. For isotope labeling experiments, 13C formaldehyde (Cambridge Isotope Laboratories, Tewksbury, MA) was used.
We combined extracts of E. coli, prepared as described in the previous example(s), expressing variants of HACL and ACR to rapidly screen for the best performing combinations. […] The combination of LmACR and RuHACL enabled the production of 6.2±0.6 mM glycolic acid in 1 hr. The use of 13C-labeled formaldehyde confirmed that the observed glycolic acid was derived from the C1 substrate, judging by the +2 shift in m/z of the [M-15]^+ ion (FIG. 13C).
Quantification of product and substrate concentrations (formic acid, formaldehyde, glycolic acid, ethylene glycol, ethanol, acetic acid) were determined via HPLC using a Shimadzu Prominence SIL 20 system (Shimadzu Scientific Instruments, Inc., Columbia, MD) equipped with a refractive index detector and an HPX-87H organic acid column (Bio-Rad, Hercules, CA) with operating conditions to optimize peak separation (0.3 ml/min flowrate, 30 mM H2SO4 mobile phase, column temperature 42° C.). Compound identification and analysis was performed by GC-MS using an Agilent 7890B Series Custom Gas Chromatography system equipped with a 5977B Inert Plus Mass Selective Detector Turbo EI Bundle (for identification) and an Agilent HP-5-ms capillary column (0.25 mm internal diameter, 0.25 μm film thickness, 30 m length).

Molecule	KM of the mutant compared to the wild type [2]	kcat of the mutant compared to the wild type [2]	performance of enzyme variant in cell-free glycolic acid pathway [3]	further results
CC(C)=O [acetone]				apparent kcat on acetone [1]: 2.7 ± 0.8 s⁻¹
C=O [formaldehyde]	no significant difference	no significant difference		
CC(C)(COP(=O)(O)OP(=O)(O)OC[C@H]1O[C@@H](n2cnc3c(N)ncnc32)[C@H](O)[C@@H]1OP(=O)(O)O)[C@@H](O)C(=O)NCCC(=O)NCCSC=O [formyl-CoA]	no significant difference	no significant difference		
HsHACL1: 2-hydroxyacyl-CoA lyase HACL1 from Homo sapiens			enabling product synthesis	
FucO: E. coli 1,2-diol oxidoreductase, added as cell extract (protein, UniProt P0A9S1 1-382, looked up, cell extract, E. coli 1,2-diol oxidoreductase, added as cell extract) Lactaldehyde reductase: MANRMILNETAWFGRGAVGALTDEVKRRGYQKALIVTDKTLVQCGVVAKVTDKMDAAGLAWAIYDGVVPNPTITVVKEGLGVFQNSGADYLIAIGGGSPQDTCKAIGIISNNPEFADVRSLEGLSPTNKPSVPILAIPTTAGTAAEVTINYVITDEEKRRKFVCVDPHDIPQVAFIDADMMDGMPPALKAATGVDALTHAIEGYITRGAWALTDALHIKAIEIIAGALRGSVAGDKDAGEEMALGQYVAGMGFSNVGLGLVHGMAHPLGAFYNTPHGVANAILLPHVMRYNADFTGEKYRDIARVMGVKVEGMSLEEARNAAVEAVFALNRDVGIPPHLRDVGVRKEDIPALAQAALDDVCTGGNPREATLEDIVELYHTAW				ethylene glycol synthesis ([3]; extract added to LmACR+RuHACL pathway): 2.73 ± 0.03 mM; fold increase of ethylene glycol ([3]; from 1.37±0.1 mM to 2.73±0.03 mM): 2 fold
OfOxc: oxalyl-CoA decarboxylase from Oxalobacter formigenes (protein, UniProt P40149 1-568, looked up) Oxalyl-CoA decarboxylase: MSNDDNVELTDGFHVLIDALKMNDIDTMYGVVGIPITNLARMWQDDGQRFYSFRHEQHAGYAASIAGYIEGKPGVCLTVSAPGFLNGVTSLAHATTNCFPMILLSGSSEREIVDLQQGDYEEMDQMNVARPHCKASFRINSIKDIPIGIARAVRTAVSGRPGGVYVDLPAKLFGQTISVEEANKLLFKPIDPAPAQIPAEDAIARAADLIKNAKRPVIMLGKGAAYAQCDDEIRALVEETGIPFLPMGMAKGLLPDNHPQSAAATRAFALAQCDVCVLIGARLNWLMQHGKGKTWGDELKKYVQIDIQANEMDSNQPIAAPVVGDIKSAVSLLRKALKGAPKADAEWTGALKAKVDGNKAKLAGKMTAETPSGMMNYSNSLGVVRDFMLANPDISLVNEGANALDNTRMIVDMLKPRKRLDSGTWGVMGIGMGYCVAAAAVTGKPVIAVEGDSAFGFSGMELETICRYNLPVTVIIMNNGGIYKGNEADPQPGVISCTRLTRGRYDMMMEAFGGKGYVANTPAELKAALEEAVASGKPCLINAMIDPDAGVESGRIKSLNVVSKVGKK			capable of catalyzing the pathway	
